Data from paper PMC9305623, “Next generation GLP-1/GIP/glucagon triple agonists normalize body weight in obese mice” (Molecular Metabolism, 2022).
*1 amine or outer side, *2 acyl side, *3 side chain or, on linkers, in order; H or OH if unused. Where a SMILES comes first, the peptide text is derived from it. Side-chain parts run from the residue outwards. [ ]: non-standard residue; d: D form. The star is where a group is joined. C20 diacid = O=C(O)CCCCCCCCCCCCCCCCCCC(=O)*; γGlu = O=C(O)[C@H](CCC(=O)[*:2])N[*:1]; εLys = N[C@@H](CCCCN[*:1])C(=O)[*:2]; Aib = CC(C)(N)C(=O)O

How the values were obtained:
Assay in all cases: Receptor activation: cAMP production by CRE-luciferase reporter in stably transfected BHK cells
Format in all cases: cell-based
Conditions in all cases: compared to the native ligand for the receptor
hGIP Receptor = biological target: T1, hGIP Receptor (Homo sapiens, UniProt P48546)
T1 construct: expressed in transfected cells; host or cells: baby hamster kidney (BHK) cells, stably transfected, with CRE-firefly luciferase reporter
T1 sequence (P48546 22-466): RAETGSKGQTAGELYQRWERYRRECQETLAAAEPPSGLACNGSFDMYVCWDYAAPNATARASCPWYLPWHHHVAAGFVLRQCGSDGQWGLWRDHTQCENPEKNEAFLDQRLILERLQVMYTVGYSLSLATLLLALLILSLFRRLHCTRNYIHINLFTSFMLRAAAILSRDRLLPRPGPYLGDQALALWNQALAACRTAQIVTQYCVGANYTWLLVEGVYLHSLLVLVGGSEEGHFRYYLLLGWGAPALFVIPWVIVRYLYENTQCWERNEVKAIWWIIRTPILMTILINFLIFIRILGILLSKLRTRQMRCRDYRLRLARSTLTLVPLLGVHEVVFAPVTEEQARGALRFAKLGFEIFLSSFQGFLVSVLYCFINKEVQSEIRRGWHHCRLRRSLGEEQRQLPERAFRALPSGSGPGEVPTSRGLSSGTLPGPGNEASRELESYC
Experimental: (§1) Cyclic AMP (cAMP) production was assessed as a proxy for receptor activation using stably transfected baby hamster kidney (BHK) cell lines expressing the DNA for one individual receptor (GLP-1R, GIPR, GcgR; human- or mouse-specific sequence) and the DNA for the firefly luciferase reporter gene linked to the cAMP response element (CRE). The cells were kept in continuous culture at 37 °C and 5% CO2 in Dulbecco's Modified Eagle Medium (DMEM) supplemented with 10% heat-inactivated fetal bovine serum (HI-FBS), 300 μg/mL hygromycin, and 500 μg/mL G418; for cell lines expressing GIPR, the G418 concentration was lowered to 400 μg/mL. Cells were plated in a 96-well poly-D-lysine-coated plate at 5,000 cells per well in growth media and incubated overnight at 37 °C with 5% CO2. After the overnight incubation, the media was removed, the plate was washed once in Dulbecco's phosphase-buffered saline (DPBS), and 50 μL of assay buffer (DMEM without phenol red, 10 mM HEPES, 1x Glutamax, 1% ovalbumin, 0.1% Pluronic F-68) was added to each well. […] Aliquots of the dilution curves were added to the cell plate in a volume of 50 μL per well resulting in final assay concentrations ranging from 1 × 10^−14 to 1 × 10^−7 M. The assay plate was incubated for 3 h at 37 °C and 5% CO2. After the incubation, the assay plate was washed once with DPBS. A 100 μL aliquot of DPBS was added to each well followed by 100 μL of steadylite plus reagent (PerkinElmer). The assay plate was covered to protect reagent from light, shaken at 250 rpm at room temperature for 30 min, and read in a microtiter plate reader. EC50 values were calculated using Prism software (GraphPad) with the nonlinear regression log(agonist) vs. response. A minimum of two replicates were measured for each sample.

hGLP-1 Receptor = biological target: T2, hGLP-1 Receptor (Homo sapiens, UniProt P43220)
T2 construct: expressed in transfected cells; host or cells: baby hamster kidney (BHK) cells, stably transfected, with CRE-firefly luciferase reporter
T2 sequence (P43220 24-463): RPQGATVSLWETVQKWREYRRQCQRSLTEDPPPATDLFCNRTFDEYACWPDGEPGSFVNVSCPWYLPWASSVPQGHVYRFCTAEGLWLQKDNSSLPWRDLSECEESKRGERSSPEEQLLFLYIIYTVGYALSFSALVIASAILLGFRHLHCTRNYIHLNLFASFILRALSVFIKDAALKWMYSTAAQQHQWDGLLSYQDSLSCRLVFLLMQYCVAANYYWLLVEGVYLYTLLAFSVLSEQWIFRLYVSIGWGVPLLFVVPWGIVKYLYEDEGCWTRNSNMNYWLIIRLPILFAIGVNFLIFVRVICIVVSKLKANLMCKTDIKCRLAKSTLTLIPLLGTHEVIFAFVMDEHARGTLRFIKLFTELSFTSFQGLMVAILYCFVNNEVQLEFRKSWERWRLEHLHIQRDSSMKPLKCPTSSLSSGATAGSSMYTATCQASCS
Experimental: as §1

hGcg Receptor = biological target: T3, hGcg Receptor (Homo sapiens, UniProt P47871)
T3 construct: expressed in transfected cells; host or cells: baby hamster kidney (BHK) cells, stably transfected, with CRE-firefly luciferase reporter
T3 sequence (P47871 26-477): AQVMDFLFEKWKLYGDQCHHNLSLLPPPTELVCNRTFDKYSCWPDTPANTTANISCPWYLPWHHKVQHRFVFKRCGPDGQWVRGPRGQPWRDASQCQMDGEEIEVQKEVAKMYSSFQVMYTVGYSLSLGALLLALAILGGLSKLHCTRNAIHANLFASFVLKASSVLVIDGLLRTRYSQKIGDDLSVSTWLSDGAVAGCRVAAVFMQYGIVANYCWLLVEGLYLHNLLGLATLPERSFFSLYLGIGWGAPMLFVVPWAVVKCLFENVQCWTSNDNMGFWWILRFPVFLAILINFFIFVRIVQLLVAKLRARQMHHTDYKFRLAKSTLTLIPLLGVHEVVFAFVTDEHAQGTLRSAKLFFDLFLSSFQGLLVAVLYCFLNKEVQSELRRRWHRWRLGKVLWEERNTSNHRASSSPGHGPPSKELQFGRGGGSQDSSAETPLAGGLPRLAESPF
Experimental: as §1

SMILES	hGIP Receptor Relative Potency % (hGIP Receptor) [%]	hGLP-1 Receptor Relative Potency % (hGLP-1 Receptor) [%]	hGcg Receptor Relative Potency % (hGcg Receptor) [%]
CC[C@H](C)[C@H](NC(=O)[C@H](CO)NC(=O)[C@H](Cc1ccc(O)cc1)NC(=O)[C@H](CC(=O)O)NC(=O)[C@H](CO)NC(=O)[C@@H](NC(=O)[C@H](Cc1ccccc1)NC(=O)[C@@H](NC(=O)CNC(=O)[C@H](Cc1c[nH]cn1)NC(=O)C(C)(C)NC(=O)[C@@H](N)Cc1c[nH]cn1)[C@@H](C)O)[C@@H](C)O)C(=O)N[C@@H](Cc1ccc(O)cc1)C(=O)N[C@@H](CC(C)C)C(=O)N[C@@H](CCC(=O)O)C(=O)N[C@@H](CCCCNC(=O)[C@@H](N)CCCCNC(=O)[C@@H](N)CCCCNC(=O)CC[C@H](NC(=O)CCCCCCCCCCCCCCCCCCC(=O)O)C(=O)O)C(=O)N[C@@H](CCC(N)=O)C(=O)N[C@@H](C)C(=O)N[C@@H](C)C(=O)NC(C)(C)C(=O)N[C@@H](CCC(=O)O)C(=O)N[C@@H](Cc1ccccc1)C(=O)N[C@H](C(=O)N[C@@H](CCC(N)=O)C(=O)N[C@@H](Cc1c[nH]c2ccccc12)C(=O)N[C@@H](CC(C)C)C(=O)N[C@@H](CC(C)C)C(=O)N[C@@H](CCC(=O)O)C(=O)NCC(=O)NCC(=O)N1CCC[C@H]1C(=O)N[C@@H](CO)C(=O)N[C@@H](CO)C(=O)NCC(=O)N[C@@H](C)C(=O)N1CCC[C@H]1C(=O)N1CCC[C@H]1C(=O)N1CCC[C@H]1C(=O)N[C@@H](CO)C(N)=O)C(C)C [Compound 13] (H-H[Aib]HGTFTSDYSIYLEK([εLys-εLys-γGlu-C20 diacid])QAA[Aib]EFVQWLLEGGPSSGAPPPS-NH2)	146	340	19
CC[C@H](C)[C@H](NC(=O)[C@H](CO)NC(=O)[C@H](Cc1ccc(O)cc1)NC(=O)[C@H](CC(=O)O)NC(=O)[C@H](CO)NC(=O)[C@@H](NC(=O)[C@H](Cc1ccccc1)NC(=O)[C@@H](NC(=O)CNC(=O)[C@H](Cc1c[nH]cn1)NC(=O)C(C)(C)NC(=O)[C@@H](N)Cc1c[nH]cn1)[C@@H](C)O)[C@@H](C)O)C(=O)N[C@@H](Cc1ccc(O)cc1)C(=O)N[C@@H](CC(C)C)C(=O)N[C@@H](CCC(=O)O)C(=O)N[C@@H](CCCCNC(=O)[C@@H](N)CCCCNC(=O)[C@@H](N)CCCCNC(=O)CC[C@H](NC(=O)CCCCCCCCCCCCCCCCCCC(=O)O)C(=O)O)C(=O)N[C@@H](CCCCN)C(=O)N[C@@H](C)C(=O)N[C@@H](C)C(=O)NC(C)(C)C(=O)N[C@@H](CCC(=O)O)C(=O)N[C@@H](Cc1ccccc1)C(=O)N[C@H](C(=O)N[C@@H](CCC(N)=O)C(=O)N[C@@H](Cc1c[nH]c2ccccc12)C(=O)N[C@@H](CC(C)C)C(=O)N[C@@H](CC(C)C)C(=O)N[C@@H](CCC(=O)O)C(=O)NCC(=O)NCC(=O)N1CCC[C@H]1C(=O)N[C@@H](CO)C(=O)N[C@@H](CO)C(=O)NCC(=O)N[C@@H](C)C(=O)N1CCC[C@H]1C(=O)N1CCC[C@H]1C(=O)N1CCC[C@H]1C(=O)N[C@@H](CO)C(N)=O)C(C)C [Compound 14] (H-H[Aib]HGTFTSDYSIYLEK([εLys-εLys-γGlu-C20 diacid])KAA[Aib]EFVQWLLEGGPSSGAPPPS-NH2)	142	211	69
CCCCCCCCCCCCCCCC(=O)NCCCC[C@H](NC(=O)[C@H](CO)NC(=O)[C@@H]1CCCN1C(=O)[C@@H]1CCCN1C(=O)[C@@H]1CCCN1C(=O)[C@H](C)NC(=O)CNC(=O)[C@H](CO)NC(=O)[C@H](CO)NC(=O)[C@@H]1CCCN1C(=O)CNC(=O)CNC(=O)[C@H](C)NC(=O)[C@H](CC(C)C)NC(=O)[C@H](CC(C)C)NC(=O)[C@H](Cc1c[nH]c2ccccc12)NC(=O)[C@H](CC(N)=O)NC(=O)[C@@H](NC(=O)[C@H](Cc1ccccc1)NC(=O)[C@H](CCC(=O)O)NC(=O)C(C)(C)NC(=O)[C@H](C)NC(=O)[C@H](C)NC(=O)[C@H](CCC(N)=O)NC(=O)[C@H](CCCCN)NC(=O)[C@H](CC(=O)O)NC(=O)[C@H](CC(C)C)NC(=O)[C@H](Cc1ccc(O)cc1)NC(=O)[C@@H](NC(=O)[C@H](CO)NC(=O)[C@H](Cc1ccc(O)cc1)NC(=O)[C@H](CC(=O)O)NC(=O)[C@H](CO)NC(=O)[C@@H](NC(=O)[C@H](Cc1ccccc1)NC(=O)[C@@H](NC(=O)CNC(=O)[C@H](CCC(N)=O)NC(=O)C(C)(C)NC(=O)[C@@H](N)Cc1ccc(O)cc1)[C@@H](C)O)[C@@H](C)O)[C@@H](C)CC)C(C)C)C(N)=O [Compound 5]	173	199	33
CC[C@H](C)[C@H](NC(=O)[C@H](CO)NC(=O)[C@H](Cc1ccc(O)cc1)NC(=O)[C@H](CC(=O)O)NC(=O)[C@H](CO)NC(=O)[C@@H](NC(=O)[C@H](Cc1ccccc1)NC(=O)[C@@H](NC(=O)CNC(=O)[C@H](CCC(N)=O)NC(=O)C(C)(C)NC(=O)[C@@H](N)Cc1ccc(O)cc1)[C@@H](C)O)[C@@H](C)O)C(=O)N[C@@H](Cc1ccc(O)cc1)C(=O)N[C@@H](CC(C)C)C(=O)N[C@@H](CC(=O)O)C(=O)N[C@@H](CCCCN)C(=O)N[C@@H](CCC(N)=O)C(=O)N[C@@H](C)C(=O)N[C@@H](C)C(=O)NC(C)(C)C(=O)N[C@@H](CCC(=O)O)C(=O)N[C@@H](Cc1ccccc1)C(=O)N[C@H](C(=O)N[C@@H](CC(N)=O)C(=O)N[C@@H](Cc1c[nH]c2ccccc12)C(=O)N[C@@H](CC(C)C)C(=O)N[C@@H](CC(C)C)C(=O)N[C@@H](C)C(=O)NCC(=O)NCC(=O)N1CCC[C@H]1C(=O)N[C@@H](CO)C(=O)N[C@@H](CO)C(=O)NCC(=O)N[C@@H](C)C(=O)N1CCC[C@H]1C(=O)N1CCC[C@H]1C(=O)N1CCC[C@H]1C(=O)N[C@@H](CO)C(=O)N[C@@H](CCCCNC(=O)COCCOCCNC(=O)COCCOCCNC(=O)CC[C@H](NC(=O)CCCCCCCCCCCCCCCCC(=O)O)C(=O)O)C(N)=O)C(C)C [Compound 6]	23	59	1
CC[C@H](C)[C@H](NC(=O)[C@H](CO)NC(=O)[C@H](Cc1ccc(O)cc1)NC(=O)[C@H](CC(=O)O)NC(=O)[C@H](CO)NC(=O)[C@@H](NC(=O)[C@H](Cc1ccccc1)NC(=O)[C@@H](NC(=O)CNC(=O)[C@H](CCC(N)=O)NC(=O)C(C)(C)NC(=O)[C@@H](N)Cc1ccc(O)cc1)[C@@H](C)O)[C@@H](C)O)C(=O)N[C@@H](Cc1ccc(O)cc1)C(=O)N[C@@H](CC(C)C)C(=O)N[C@@H](CCC(=O)O)C(=O)N[C@@H](CCCCNC(=O)[C@@H](N)CCCCNC(=O)[C@@H](N)CCCCNC(=O)CC[C@H](NC(=O)CCCCCCCCCCCCCCCCCCC(=O)O)C(=O)O)C(=O)N[C@@H](CCC(N)=O)C(=O)N[C@@H](C)C(=O)N[C@@H](C)C(=O)NC(C)(C)C(=O)N[C@@H](CCC(=O)O)C(=O)N[C@@H](Cc1ccccc1)C(=O)N[C@H](C(=O)N[C@@H](CCC(N)=O)C(=O)N[C@@H](Cc1c[nH]c2ccccc12)C(=O)N[C@@H](CC(C)C)C(=O)N[C@@H](CC(C)C)C(=O)N[C@@H](CCC(=O)O)C(=O)NCC(=O)NCC(=O)N1CCC[C@H]1C(=O)N[C@@H](CO)C(=O)N[C@@H](CO)C(=O)NCC(=O)N[C@@H](C)C(=O)N1CCC[C@H]1C(=O)N1CCC[C@H]1C(=O)N1CCC[C@H]1C(=O)N[C@@H](CO)C(N)=O)C(C)C [Compound 10] (H-Y[Aib]QGTFTSDYSIYLEK([εLys-εLys-γGlu-C20 diacid])QAA[Aib]EFVQWLLEGGPSSGAPPPS-NH2)	150	244	11
